Test results reported in US20260263550A1, “METHODS AND COMPOSITIONS FOR TREATING, PREVENTING, INHIBITING, AMELIORATING OR DELAYING THE ONSET OF OPHTHALMIC CONDITIONS” (Stealth BioTherapeutics Inc., priority 2021, published 2026).

Columns and labels:
[1] = Uptake in plasma and compartments of the eye in a rabbit model (subcutaneous or topical ocular dosing); format: in vivo, Dutch Belted Rabbits; conditions: in vivo
Protocol: 3 mg/mL elamipretide or compound of Formula IIa in saline was dosed subcutaneously at 1.5 mg/kg. A 3 mg/mL elamipretide or compound of Formula IIa formulation was prepared by dissolving 81 mg elamipretide in a total volume of 27 mL of sterile saline and mixing well. • (ii) Groups 2 & 4: Topical Ocular Formulation for administration of elamipretide or compound of Formula IIa
For each preparation (i.e., elamipretide or compound of Formula IIa, sodium chloride (105 mg) was dissolved in 16 mL of water for injection with mixing. With mixing, 82.8 mg of sodium phosphate monobasic, monohydrate was then added. With mixing, 0.400 mL of a 5 mg/mL benzalkonium chloride solution in water (to be prepared by diluting 0.100 mL of a 50% benzalkonium chloride solution in water to 10 mL with water for injection) was then added. Two hundred (200) mg of elamipretide or compound of Formula IIa was then added with mixing and the formulation pH was adjusted to 5.8 (+/−0.1) with 1 M sodium hydroxide in water solution. The final volume of the formulation was then be brought to 20 mL using water for injection. Each formulation (elamipretide or compound of Formula IIa) was used for topical ocular administration at a dose of 50 μL/eye OU.
A total of 48 male Dutch Belted Rabbits were used in the study. Each animal was approximately 2 kg.
For subcutaneous administration, rabbits were dosed via a single subcutaneous injection of 1.5 mg/kg and at the scruff of the neck between the shoulder blades using a syringe with an attached 27G×½ inch needle (or similar). The site of injection was checked to ensure no leakage of dose immediately following administration.
For topical administration, a calibrated Gilson positive displacement pipette was used to administer 50 μL of formulation onto the globe the eye while the lower eyelid was pulled away from the globe. Administration was twice daily (i.e., BID). Doses were administered to both eyes, every 8 to 12 hours for 11 total doses.
Terminal blood samples (approximately 6 mL) were collected from two animals/group/timepoint via the central ear artery at approximately 0.5, 1, 2, 4, 8, and 24 hours postdose. Blood samples were collected into tubes containing K2EDTA as the anticoagulant and inverted several times to ensure adequate mixing of blood and anticoagulant and placed on ice. Within 30 min of collection, samples were centrifuged to harvest plasma and stored at −80° C. until analyzed.
Following blood collection, designated animals were euthanized by barbiturate overdose. Following euthanasia, both eyes of each rabbit were harvested and dissected for collection of ocular tissue and fluid. Optic nerve and retina were collected from Group 1 and 3 animals, and aqueous humor, retina, conjunctiva, cornea, sclera, and optic nerve were collected from Group 2 and 4 animals. Following dissection, all fluids and tissues were placed in pre-tared tubes, weight collected, and then flash frozen on dry ice and placed in a freezer at −80° C. or lower until analyzed. Concentrations of test article in plasma in the ocular tissues (ng/g tissue) and fluids (ng/mL fluid) were determined utilizing a method previously developed by the CRO.

[2] = test system: iPSC-derived RPE cells from AMD donors; test: Cell viability assay on nitrite-modified ECM (Real Time-Glo MT Cell Viability Assay); format: cell-based, human; conditions: 10, 100, 1000 nM; 24 hours; versus vehicle-treated cells; FIG. 8J, *p<0.05
Protocol: General. iPSC-derived RPE were generated from AMD patients (2 atrophic; 1 exudative) and patients with no history of AMD (n=3). To test the therapeutic efficacy of elamipretide and compound of Formula IIa, cell viability was analyzed on nitrite-modified extracellular matrix (ECM), a typical modification of aged Bruch's membrane, for 24 hrs. DNA microarrays were used to elucidate gene expression in AMD-derived RPE cultured on nitrite-modified ECM.
Preparation of RPE cell-derived ECM and nitrite-modified ECM RPE cell-derived ECM plates were prepared from ARPE-19 cells as described in Wang et al., Curr Eye Res. 30:691-702 (2005); Fields et al. (2017); and Moreira et al., Transl Vis Sci Technol. 4:10 (2015). ECM on 96-well plates were used to create two experimental plating surfaces (nontreated ECM and nitrite-modified ECM). Nitrite-modified ECM was prepared by adding 100 mM sodium nitrite to ECM followed by incubation at 37° C. for 7 days. Plates were then washed with DPBS and incubated with DPBS for 4 hours to completely remove the nitrite. […]
Cell viability was measured by Real Time-Glo MT Cell Viability Assay (Promega, Madison, WI, www.promega.com) according to the manufacturer's protocol. […] Luminescent signals were acquired using a BioTek FLx800 plate reader (BioTek).

Cc1cc(O)cc(C)c1C[C@H](NC(=O)[C@H](N)CCCNC(=N)N)C(=O)N[C@@H](CCCCN)c1nc(Cc2ccccc2)no1.Cl.Cl.Cl [Formula IIa, (R)-2-amino-N—((S)-1-(((S)-5-amino-1-(3-benzyl-1,2,4-oxadiazol-5-yl)pentyl)amino)-3-(4-hydroxy-2,6-dimethylphenyl)-1-oxopropan-2-yl)-5-guanidinopentanamide]
accumulation in eye tissues (retina, conjunctiva, cornea, aqueous humor, optic nerve head) compared with elamipretide [1]: higher concentration | concentration in the eye tissue examined compared with elamipretide (conjunctiva, cornea, aqueous humor, optical nerve head) [1]: higher | concentration in plasma, elamipretide compared with compound of Formula IIa ([1]; 1.5 mg/kg): roughly equivalent | AMD-derived RPE cell viability on nitrite-modified ECM [2]: significantly enhanced
